Source: the supplement of paper PMC10307832

What was measured:
Assay in all cases: relative viability (nuclei count vs DMSO), 5 days (fraction); higher = more cells survive
OSI-027 + Luminespib = compound: COc1cccc2cc(-c3nc([C@H]4CC[C@H](C(=O)O)CC4)n4ncnc(N)c34)[nH]c12 [OSI-027] + CCNC(=O)c1noc(-c2cc(C(C)C)c(O)cc2O)c1-c1ccc(CN2CCOCC2)cc1 [Luminespib] (partner 0.01 µM)
Method in brief: (§1)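 Each reported value is a median over duplicate plates. It expresses relative viability: treated-well nuclei count divided by vehicle-well nuclei count. Lung cancer cell lines in 1536-well plates were dosed by pin tool a day after seeding, alone with one drug or with a fixed anchor-drug dose plus five library-drug doses (not always all listed) in √10 steps, and nuclei were counted after 5 days.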

Alpelisib + Olaparib = compound: Cc1nc(NC(=O)N2CCC[C@H]2C(N)=O)sc1-c1ccnc(C(C)(C)C(F)(F)F)c1 [Alpelisib] + O=C(c1cc(Cc2n[nH]c(=O)c3ccccc23)ccc1F)N1CCN(C(=O)C2CC2)CC1 [Olaparib] (partner 8 µM)
Method in brief: as §1

OSI-027 + Foretinib = compound: COc1cccc2cc(-c3nc([C@H]4CC[C@H](C(=O)O)CC4)n4ncnc(N)c34)[nH]c12 [OSI-027] + COc1cc2c(Oc3ccc(NC(=O)C4(C(=O)Nc5ccc(F)cc5)CC4)cc3F)ccnc2cc1OCCCN1CCOCC1 [Foretinib] (partner 0.25 µM)
Method in brief: as §1

OSI-027 + Phenformin = compound: COc1cccc2cc(-c3nc([C@H]4CC[C@H](C(=O)O)CC4)n4ncnc(N)c34)[nH]c12 [OSI-027] + N=C(N)NC(=N)NCCc1ccccc1 [Phenformin] (partner 250 µM)
Method in brief: as §1

Cell Line	relative viability (OSI-027 + Luminespib; first compound 0.01 µM)	relative viability (OSI-027 + Luminespib; first compound 0.03162 µM)	relative viability (OSI-027 + Luminespib; first compound 0.1 µM)	relative viability (OSI-027 + Luminespib; first compound 0.3162 µM)	relative viability (OSI-027 + Luminespib; first compound 1 µM)	relative viability (Alpelisib + Olaparib; first compound 0.04 µM)	relative viability (Alpelisib + Olaparib; first compound 0.1265 µM)	relative viability (Alpelisib + Olaparib; first compound 0.4 µM)	relative viability (Alpelisib + Olaparib; first compound 1.265 µM)	relative viability (Alpelisib + Olaparib; first compound 4 µM)	relative viability (OSI-027 + Foretinib; first compound 0.01 µM)	relative viability (OSI-027 + Foretinib; first compound 0.03162 µM)	relative viability (OSI-027 + Foretinib; first compound 0.1 µM)	relative viability (OSI-027 + Foretinib; first compound 0.3162 µM)	relative viability (OSI-027 + Foretinib; first compound 1 µM)	relative viability (OSI-027 + Phenformin; first compound 0.01 µM)	relative viability (OSI-027 + Phenformin; first compound 0.03162 µM)	relative viability (OSI-027 + Phenformin; first compound 0.1 µM)	relative viability (OSI-027 + Phenformin; first compound 0.3162 µM)	relative viability (OSI-027 + Phenformin; first compound 1 µM)
NCI-H2405	0.678	0.647	0.559	0.479	0.443	0.905	0.864	0.898	0.657	0.71	1.02	0.968	0.918	0.734	0.537	0.39	0.355	0.338	0.327	0.27
NCI-H3122	0.0994	0.0843	0.054	0.0869	0.0772	0.644	0.657	0.668	0.647	0.508	1.02	0.998	1.03	0.98	0.45	0.409	0.41	0.454	0.443	0.288
PC-3 [JPC-3]	0.839	0.553	0.661	0.598	0.332	1.23	1.1	1.24	0.967	1.02	1.02	0.976	0.963	0.98	0.454	0.482	0.465	0.49	0.449	0.433
PC-14	0.146	0.108	0.126	0.17	0.17	0.263	0.348	0.512	0.276	0.295	0.937	0.843	1.03	0.958	0.847	0.582	0.466	0.488	0.392	0.276
RERF-LC-KJ	1.41	1.09	1.08	1.09	0.459	0.878	0.894	0.84	0.655	0.74	0.869	0.885	0.919	0.622	0.445	0.458	0.423	0.383	0.383	0.361
SK-LU-1	0.188	0.198	0.173	0.181	0.152	0.491	0.472	0.532	0.378	0.41	0.911	0.816	0.586	0.433	0.28	0.515	0.467	0.447	0.318	0.219
SK-MES-1	0.75	0.63	0.731	0.554	0.227	0.616	0.556	0.786	0.622	0.544	0.874	1.1	0.926	0.69	0.447	0.637	0.608	0.64	0.576	0.305
SW 900		0.153	0.169	0.171	0.163	0.878		0.974	0.914	0.795		0.644	0.725	0.873	0.405		0.45	0.633	0.474	0.347
SW 1573	0.235	0.19	0.184	0.214	0.13	0.431	0.455	0.406	0.341	0.311	0.753	0.923	0.713	0.59	0.787	0.406	0.286	0.343	0.312	0.191
